# Data: paper PMC5218480 (PLoS ONE, 2017)
# Test system: MV-4-11 cells
# Experiment: Gene expression microarray analysis (Affymetrix PrimeView) and GSEA
# Assay type: cell-based, human
# Parameters: RFU PODN (11730768_x_at) / Fold change /veh PODN (11730768_x_at) / RFU LINC00158 (11744669_a_at) / Fold change /veh LINC00158 (11744669_a_at) / RFU DUSP10 (11751237_a_at) / Fold change /veh DUSP10 (11751237_a_at) / RFU ID3 (11757404_x_at) / Fold change /veh ID3 (11757404_x_at) / RFU PLEKHG5 (11737974_s_at) / Fold change /veh PLEKHG5 (11737974_s_at) / RFU LRRC4B (11730491_at) / Fold change /veh LRRC4B (11730491_at) / RFU GIMAP4 (11747438_a_at) / Fold change /veh GIMAP4 (11747438_a_at) / RFU KRT8 (11758183_x_at) / Fold change /veh KRT8 (11758183_x_at) / RFU CNN1 (11734310_a_at) / Fold change /veh CNN1 (11734310_a_at) / RFU VPS37D (11726825_at) / Fold change /veh VPS37D (11726825_at) / RFU C10orf10 (11716522_x_at) / Fold change /veh C10orf10 (11716522_x_at) / RFU KIR2DL2 /// KIR2DL4 /// KIR2DL5A /// KIR2DL5B /// KIR2DS1 /// KIR2DS2 /// KIR2DS3 /// KIR2DS4 /// KIR3DL3 /// KIR3DL3 /// KIR3DS1 (11738374_at) / Fold change /veh KIR2DL2 /// KIR2DL4 /// KIR2DL5A /// KIR2DL5B /// KIR2DS1 /// KIR2DS2 /// KIR2DS3 /// KIR2DS4 /// KIR3DL3 /// KIR3DL3 /// KIR3DS1 (11738374_at) / RFU C1QL1 (11718748_at) / Fold change /veh C1QL1 (11718748_at) / RFU TMPRSS4 (11747572_a_at) / Fold change /veh TMPRSS4 (11747572_a_at) / RFU HAMP (11756126_x_at) / Fold change /veh HAMP (11756126_x_at) / RFU RNFT2 (11725882_a_at) / Fold change /veh RNFT2 (11725882_a_at) / RFU NR4A2 (11747474_a_at) / Fold change /veh NR4A2 (11747474_a_at) / RFU ABCC12 (11746883_a_at) / Fold change /veh ABCC12 (11746883_a_at) / RFU TMEM136 (11760407_x_at) / Fold change /veh TMEM136 (11760407_x_at) / RFU CLDN22 /// WWC2 (11732394_at) / Fold change /veh CLDN22 /// WWC2 (11732394_at) / RFU HLA-DPB1 (11760878_x_at) / Fold change /veh HLA-DPB1 (11760878_x_at) / RFU SPINT1 (11716480_a_at) / Fold change /veh SPINT1 (11716480_a_at) / RFU GAP43 (11754022_s_at) / Fold change /veh GAP43 (11754022_s_at) / RFU A4GNT (11735810_at) / Fold change /veh A4GNT (11735810_at) / RFU PRB3 (11715151_x_at) / Fold change /veh PRB3 (11715151_x_at) / RFU TUBB4B (11761932_at) / Fold change /veh TUBB4B (11761932_at) / RFU CAPN14 (11732068_a_at) / Fold change /veh CAPN14 (11732068_a_at) / RFU TMCC2 (11721928_a_at) / Fold change /veh TMCC2 (11721928_a_at) / RFU IRGQ (11745062_a_at) / Fold change /veh IRGQ (11745062_a_at) / RFU FAM174B (11720279_a_at) / Fold change /veh FAM174B (11720279_a_at) / RFU TMPRSS4 (11748680_a_at) / Fold change /veh TMPRSS4 (11748680_a_at) / RFU FAM212B (11763350_a_at) / Fold change /veh FAM212B (11763350_a_at) / RFU PLEKHG5 (11743358_a_at) / Fold change /veh PLEKHG5 (11743358_a_at) / RFU ZSCAN30 (11745921_a_at) / Fold change /veh ZSCAN30 (11745921_a_at) / RFU CMKLR1 (11741424_a_at) / Fold change /veh CMKLR1 (11741424_a_at) / RFU LOC101060620 /// MAPK8IP1 (11723275_at) / Fold change /veh LOC101060620 /// MAPK8IP1 (11723275_at) / RFU SPTSSB (11747773_x_at) / Fold change /veh SPTSSB (11747773_x_at) / RFU PRSS12 (11739890_at) / Fold change /veh PRSS12 (11739890_at) / RFU BIN1 (11741810_x_at) / Fold change /veh BIN1 (11741810_x_at) / RFU WNT11 (11732464_a_at) / Fold change /veh WNT11 (11732464_a_at) / RFU C10orf10 (11716521_a_at) / Fold change /veh C10orf10 (11716521_a_at) / RFU C5orf56 (11738089_at) / Fold change /veh C5orf56 (11738089_at) / RFU CYB561 (11721691_x_at) / Fold change /veh CYB561 (11721691_x_at) / RFU ANKRD19P (11752326_a_at) / Fold change /veh ANKRD19P (11752326_a_at) / RFU OR2T12 /// OR2T33 /// OR2T8 (11738714_s_at) / Fold change /veh OR2T12 /// OR2T33 /// OR2T8 (11738714_s_at) / RFU VCAN (11748164_a_at) / Fold change /veh VCAN (11748164_a_at) / RFU JSRP1 (11732532_at) / Fold change /veh JSRP1 (11732532_at) / RFU KRTAP10-11 (11738290_x_at) / Fold change /veh KRTAP10-11 (11738290_x_at) / RFU MYO3A (11730013_a_at) / Fold change /veh MYO3A (11730013_a_at) / RFU EBF3 (11725865_a_at) / Fold change /veh EBF3 (11725865_a_at) / RFU CAMK2N1 (11719241_x_at) / Fold change /veh CAMK2N1 (11719241_x_at) / RFU C5orf56 (11738088_a_at) / Fold change /veh C5orf56 (11738088_a_at) / RFU OLFML3 (11715873_a_at) / Fold change /veh OLFML3 (11715873_a_at) / RFU LOC100653217 /// NTM (11731650_a_at) / Fold change /veh LOC100653217 /// NTM (11731650_a_at) / RFU MAPK11 (11762145_a_at) / Fold change /veh MAPK11 (11762145_a_at) / RFU FIZ1 (11724087_x_at) / Fold change /veh FIZ1 (11724087_x_at) / RFU OASL (11726364_x_at) / Fold change /veh OASL (11726364_x_at) / RFU SOX15 (11748057_x_at) / Fold change /veh SOX15 (11748057_x_at) / RFU CD79A (11719716_a_at) / Fold change /veh CD79A (11719716_a_at) / RFU HIST1H1D (11736915_at) / Fold change /veh HIST1H1D (11736915_at) / RFU CASKIN2 (11723855_a_at) / Fold change /veh CASKIN2 (11723855_a_at) / RFU LOC730098 (11760151_x_at) / Fold change /veh LOC730098 (11760151_x_at) / RFU OR4N2 (11742367_at) / Fold change /veh OR4N2 (11742367_at) / RFU PRRT2 (11749266_a_at) / Fold change /veh PRRT2 (11749266_a_at) / RFU SNX32 (11753110_a_at) / Fold change /veh SNX32 (11753110_a_at) / RFU CDHR5 (11726645_a_at) / Fold change /veh CDHR5 (11726645_a_at) / RFU RCAN1 (11760418_a_at) / Fold change /veh RCAN1 (11760418_a_at) / RFU FAM167A (11723789_a_at) / Fold change /veh FAM167A (11723789_a_at) / RFU FAM26E (11764081_at) / Fold change /veh FAM26E (11764081_at) / RFU ISYNA1 (11749810_s_at) / Fold change /veh ISYNA1 (11749810_s_at) / RFU ACY1 (11761880_at) / Fold change /veh ACY1 (11761880_at) / RFU 11764098_at / Fold change /veh 11764098_at / RFU SAMD14 (11745864_x_at) / Fold change /veh SAMD14 (11745864_x_at) / RFU NPB (11741838_a_at) / Fold change /veh NPB (11741838_a_at) / RFU TMPRSS6 (11731388_a_at) / Fold change /veh TMPRSS6 (11731388_a_at) / RFU KRTAP10-2 (11738614_at) / Fold change /veh KRTAP10-2 (11738614_at) / RFU ARHGAP8 /// PRR5-ARHGAP8 (11727945_x_at) / Fold change /veh ARHGAP8 /// PRR5-ARHGAP8 (11727945_x_at) / RFU KRTAP5-7 /// NADSYN1 (11734609_at) / Fold change /veh KRTAP5-7 /// NADSYN1 (11734609_at) / RFU RASL12 (11751679_a_at) / Fold change /veh RASL12 (11751679_a_at) / RFU CDKN2B (11736163_a_at) / Fold change /veh CDKN2B (11736163_a_at) / RFU PRF1 (11729649_at) / Fold change /veh PRF1 (11729649_at) / RFU, ZNF638 /// ZNF638-IT1 / Fold change vs veh, ZNF638 /// ZNF638-IT1 / RFU, PANK3 / Fold change vs veh, PANK3 / RFU, SH3YL1 / Fold change vs veh, SH3YL1 / RFU, ZEB2 / Fold change vs veh, ZEB2 / RFU, NRIP1 / Fold change vs veh, NRIP1 / RFU, PTTG1IP / Fold change vs veh, PTTG1IP / RFU, CAPN2 / Fold change vs veh, CAPN2 / RFU, MED14 / Fold change vs veh, MED14 / RFU, SNORA58 / Fold change vs veh, SNORA58 / RFU, C1orf63 / Fold change vs veh, C1orf63 / RFU, LRRFIP1 / Fold change vs veh, LRRFIP1 / RFU, NDUFAF7 / Fold change vs veh, NDUFAF7 / RFU, SLC12A2 / Fold change vs veh, SLC12A2 / RFU, IBTK / Fold change vs veh, IBTK / RFU, ESF1 / Fold change vs veh, ESF1 / Fold change vs veh, TMEM50B / RFU, TAOK1 / Fold change vs veh, TAOK1 / RFU, ACBD3 / Fold change vs veh, ACBD3 / RFU, TMA16 / Fold change vs veh, TMA16 / RFU, RWDD3 / Fold change vs veh, RWDD3 / RFU, BCAT1 / Fold change vs veh, BCAT1 / RFU, EDEM3 / Fold change vs veh, EDEM3 / RFU, TMEM33 / Fold change vs veh, TMEM33 / RFU, WDR75 / Fold change vs veh, WDR75 / RFU, AHCTF1 / Fold change vs veh, AHCTF1 / RFU, TFRC / Fold change vs veh, TFRC / RFU, ZDHHC17 / Fold change vs veh, ZDHHC17 / RFU, NOM1 / Fold change vs veh, NOM1 / RFU, ARL8B / Fold change vs veh, ARL8B / RFU, ZBTB11 / Fold change vs veh, ZBTB11 / RFU, TAMM41 / Fold change vs veh, TAMM41 / RFU, KIAA1704 /// LOC100996395 / Fold change vs veh, KIAA1704 /// LOC100996395 / RFU, ING1 / Fold change vs veh, ING1 / RFU, TRMT61B / Fold change vs veh, TRMT61B / RFU, FUBP3 / Fold change vs veh, FUBP3 / RFU, TP53 / Fold change vs veh, TP53 / RFU, TNKS2 / Fold change vs veh, TNKS2 / RFU, ZFP14 / Fold change vs veh, ZFP14 / RFU, ACTR2 / Fold change vs veh, ACTR2 / RFU, PPP3R1 / Fold change vs veh, PPP3R1 / RFU, PIK3R1 / Fold change vs veh, PIK3R1 / RFU, HNRNPA1 / Fold change vs veh, HNRNPA1 / RFU, RNF170 / Fold change vs veh, RNF170 / RFU, ZNF28 / Fold change vs veh, ZNF28 / RFU, RNGTT / Fold change vs veh, RNGTT / RFU, OGT / Fold change vs veh, OGT / RFU, BRD1 / Fold change vs veh, BRD1 / RFU, MARS / Fold change vs veh, MARS / RFU, ZNF655 / Fold change vs veh, ZNF655 / RFU, FAHD1 / Fold change vs veh, FAHD1 / RFU, BDP1 / Fold change vs veh, BDP1 / RFU, LRRCC1 / Fold change vs veh, LRRCC1 / RFU, ARID1A / Fold change vs veh, ARID1A / RFU, ZNF146 / Fold change vs veh, ZNF146 / RFU, ZNF330 / Fold change vs veh, ZNF330 / RFU, GPN3 / Fold change vs veh, GPN3 / RFU, C9orf123 / Fold change vs veh, C9orf123 / RFU, N4BP2L2 / Fold change vs veh, N4BP2L2 / RFU, ARFIP1 / Fold change vs veh, ARFIP1 / RFU, FAM179B / Fold change vs veh, FAM179B / RFU, BCL10 / Fold change vs veh, BCL10 / RFU, UHRF1BP1L / Fold change vs veh, UHRF1BP1L / RFU, BET1 / Fold change vs veh, BET1 / RFU, CNOT2 / Fold change vs veh, CNOT2 / RFU, ZNF268 / Fold change vs veh, ZNF268 / Fold change vs veh, ZNF507 / RFU, DGCR2 / Fold change vs veh, DGCR2 / RFU, WDSUB1 / Fold change vs veh, WDSUB1 / Fold change vs veh, HSP90B1 /// MIR3652 / RFU, ADSS / Fold change vs veh, ADSS / RFU, GK / Fold change vs veh, GK / RFU, ZNF148 / Fold change vs veh, ZNF148 / RFU, TAF9 / Fold change vs veh, TAF9 / RFU, SLC1A5 / Fold change vs veh, SLC1A5 / RFU, SLMO2 / Fold change vs veh, SLMO2 / RFU, ABCC4 / Fold change vs veh, ABCC4 / RFU, LOC101060439 /// RAP1B / Fold change vs veh, LOC101060439 /// RAP1B / RFU, RFX7 / Fold change vs veh, RFX7 / RFU, GTPBP10 / Fold change vs veh, GTPBP10 / RFU, CNEP1R1 / Fold change vs veh, CNEP1R1 / RFU, BIVM-ERCC5 /// ERCC5 / Fold change vs veh, BIVM-ERCC5 /// ERCC5 / RFU, ILF3 / Fold change vs veh, ILF3 / RFU 11762660_at / Fold change /veh 11762660_at / RFU VCAN (11757783_s_at) / Fold change /veh VCAN (11757783_s_at) / RFU DDX43 (11728927_at) / Fold change /veh DDX43 (11728927_at) / RFU KRT8 (11758188_x_at) / Fold change /veh KRT8 (11758188_x_at) / RFU NKD1 (11759106_at) / Fold change /veh NKD1 (11759106_at) / RFU SRD5A1 (11742802_a_at) / Fold change /veh SRD5A1 (11742802_a_at) / RFU TPSAB1 /// TPSB2 (11721975_s_at) / Fold change /veh TPSAB1 /// TPSB2 (11721975_s_at) / RFU GSTM3 (11746129_a_at) / Fold change /veh GSTM3 (11746129_a_at) / RFU IL23R (11737362_x_at) / Fold change /veh IL23R (11737362_x_at) / RFU TMEM51 (11727254_a_at) / Fold change /veh TMEM51 (11727254_a_at) / RFU PIWIL2 (11732686_x_at) / Fold change /veh PIWIL2 (11732686_x_at) / RFU ORM1 (11744905_x_at) / Fold change /veh ORM1 (11744905_x_at) / RFU CCDC152 (11743942_at) / Fold change /veh CCDC152 (11743942_at) / RFU ECM1 (11717891_a_at) / Fold change /veh ECM1 (11717891_a_at) / RFU IL23R (11748794_a_at) / Fold change /veh IL23R (11748794_a_at) / RFU TNFAIP8L3 (11732012_x_at) / Fold change /veh TNFAIP8L3 (11732012_x_at) / RFU MBOAT4 (11741988_at) / Fold change /veh MBOAT4 (11741988_at) / RFU 11764193_at / Fold change /veh 11764193_at / RFU TMEM53 (11763286_at) / Fold change /veh TMEM53 (11763286_at) / RFU MAGEB2 (11727129_at) / Fold change /veh MAGEB2 (11727129_at) / RFU TMEM200A (11744735_a_at) / Fold change /veh TMEM200A (11744735_a_at) / RFU CCDC152 (11751479_a_at) / Fold change /veh CCDC152 (11751479_a_at) / RFU FAM211A (11726209_a_at) / Fold change /veh FAM211A (11726209_a_at) / RFU RGS16 (11746705_a_at) / Fold change /veh RGS16 (11746705_a_at) / RFU VCAN (11755009_s_at) / Fold change /veh VCAN (11755009_s_at) / RFU RHOB (11743442_s_at) / Fold change /veh RHOB (11743442_s_at) / RFU RGS16 (11720943_a_at) / Fold change /veh RGS16 (11720943_a_at) / RFU RGS16 (11720944_at) / Fold change /veh RGS16 (11720944_at) / RFU, VPS4B / Fold change vs veh, VPS4B / RFU, CREB1 / Fold change vs veh, CREB1 / RFU, DNAJC13 / Fold change vs veh, DNAJC13 / RFU, GNAQ / Fold change vs veh, GNAQ / RFU, CDK5R1 / Fold change vs veh, CDK5R1 / RFU, ZRANB3 / Fold change vs veh, ZRANB3 / RFU, CUL4A / Fold change vs veh, CUL4A / RFU, CCNY / Fold change vs veh, CCNY / RFU, UFL1 / Fold change vs veh, UFL1 / RFU, COG3 / Fold change vs veh, COG3 / RFU, DIAPH2 / Fold change vs veh, DIAPH2 / RFU, SKA2 / Fold change vs veh, SKA2 / RFU, AFF3 / Fold change vs veh, AFF3 / RFU, LMF1 / Fold change vs veh, LMF1 / RFU, IPO11 / Fold change vs veh, IPO11 / RFU, DFFB / Fold change vs veh, DFFB / RFU, FOXP1 / Fold change vs veh, FOXP1 / RFU, CARD8 / Fold change vs veh, CARD8 / RFU, STRN3 / Fold change vs veh, STRN3 / RFU, ADK / Fold change vs veh, ADK / RFU, RASSF2 / Fold change vs veh, RASSF2 / RFU, WIPF1 / Fold change vs veh, WIPF1 / RFU, LARP1B / Fold change vs veh, LARP1B / RFU, RASA1 / Fold change vs veh, RASA1 / RFU, RB1 / Fold change vs veh, RB1 / RFU, PPFIA1 / Fold change vs veh, PPFIA1 / RFU, MAT2A / Fold change vs veh, MAT2A / RFU, CCT5 / Fold change vs veh, CCT5 / RFU, WDR92 / Fold change vs veh, WDR92 / RFU, CUX1 / Fold change vs veh, CUX1 / RFU, TTC7A / Fold change vs veh, TTC7A / RFU, TMEM135 / Fold change vs veh, TMEM135 / RFU, DEPTOR / Fold change vs veh, DEPTOR / RFU, CPM / Fold change vs veh, CPM / RFU, DNAJB6 / Fold change vs veh, DNAJB6 / RFU, CACNA2D3 / Fold change vs veh, CACNA2D3 / RFU, DTX4 / Fold change vs veh, DTX4 / RFU, TFCP2 / Fold change vs veh, TFCP2 / RFU, GMCL1 /// GMCL1P1 / Fold change vs veh, GMCL1 /// GMCL1P1 / RFU, AEBP2 / Fold change vs veh, AEBP2 / RFU, SNHG1 /// SNORD22 /// SNORD25 /// SNORD26 /// SNORD27 /// SNORD28 /// SNORD29 /// SNORD31 / Fold change vs veh, SNHG1 /// SNORD22 /// SNORD25 /// SNORD26 /// SNORD27 /// SNORD28 /// SNORD29 /// SNORD31 / Fold change (Aza/veh), C12orf56 (ProbeSet 11735607_a_at) / Fold change (ACY-1035/veh), C12orf56 (ProbeSet 11735607_a_at) / Fold change (Aza/veh), FGFR1OP (ProbeSet 11751329_s_at) / Fold change (ACY-1035/veh), FGFR1OP (ProbeSet 11751329_s_at) / Fold change (Aza/veh), VPS36 (ProbeSet 11739960_a_at) / Fold change (ACY-1035/veh), VPS36 (ProbeSet 11739960_a_at) / RFU SYPL1 (11715823_x_at) / Fold change /veh SYPL1 (11715823_x_at) / RFU IGFBP7 (11715501_s_at) / Fold change /veh IGFBP7 (11715501_s_at) / RFU REEP3 (11722064_at) / Fold change /veh REEP3 (11722064_at) / RFU IGLL1 (11728026_x_at) / Fold change /veh IGLL1 (11728026_x_at): dose or concentration left out as unconfirmed
# Conditions: MV-4-11 cells, 48 hours
structure (smiles),measurement,value
Nc1ncn([C@@H]2O[C@H](CO)[C@@H](O)[C@H]2O)c(=O)n1 [azacitidine],RFU GSTM3 (11746129_a_at),15.07 RFU
